In patent publication US20050036904A1, “Methods for eradication of nanobacteria” (priority 1998, published 2005):
Counter-ions that a name gives are not always drawn.

Experiments:
SF-nanobacteria = assay: Chemical disinfection of SF-nanobacteria; format: cell-based; design: Resistance of SF-nanobacteria to chemical disinfectants (survival), exposure time 10 min: key to the marks not given beside the values; conditions: for Resistance of SF-nanobacteria to chemical disinfectants (survival), exposure time 10 min: 10 min exposure at room temperature; for Resistance of SF-nanobacteria to chemical disinfectants (survival), exposure time 10 min / Resistance of SF-nanobacteria to chemical disinfectants (survival), exposure time 30 min: survival after subculture compared to diluent only; for Resistance of SF-nanobacteria to chemical disinfectants (survival), exposure time 30 min: 30 min exposure at room temperature; for Effect of chemical treatment on SF-nanobacteria (in words): room temperature exposure
Text: The cultures were exposed to the disinfectants after removal of the culture medium. For the autoclaving, UV, microwave, and drying treatments, the medium was removed and an equal amount of PBS used instead. For the heat treatments, the SF-nanobacteria were harvested by scraping the culture vessel followed by centrifugation of the medium. The obtained pellet was suspended in PBS and used in the test. After treatments the SF-nanobacteria were subcultured in DMEM medium and the growth followed by light microscopy to see the adherence and typical mineralization.
The concentrations of the chemicals used were those commonly used for disinfection or as instructed by the manufacturer. The chemicals included 70% ethanol, 2% glutaraldehyde, 4% formaldehyde, 0.5% hypochlorite, 3% hydrogen peroxide, 1M hydrochloric acid (HCl), 1M sodium hydroxide (NaOH), 1% sodium dodecyl sulfate (SDS), 1% Tween 80, 1% Triton X-100, 3M guanidium-hydrochloride, 3M urea, 1% Virkon® (Antec International Ltd., Suffolk, England; 100% product contains 50% potassium persulfate, 5% sulfaminoic acid), 1.5% Erifenol® (Orion OY, Finland; 100% product contains <5% NaOH, <5% o-benzyl-p-chlorophenol, 5-15% p-chloro-m-cresol), 1% Klorilli® (Orion OY, Finland; 100% product contains sodium metasilicate, sodium N-chloro-p-toluenesulfonamide-3-hydrate and 20,000 ppm active chlorine), and 3% Buraton® (Schulke & Mayr, Germany; 100% product contains 4.5% formaldehyde, 6.8% glyoxal, 1.5% glyoxylic acid, 6% dimethylaurylbenzyl-ammonium chloride). The dilutions to be used were freshly prepared on the day of exposure in sterile distilled water. As a positive control, only diluent was used. Negative control contained only culture medium.
The SF-nanobacteria were exposed to the chemicals for 10 and 30 minutes at room temperature after removal of the culture medium. After exposure, the disinfectant solution was removed and fresh medium added (with a neutralization step in the case of HCl and NaOH). If any significant deattachment occurred, nanobacteria were recovered by centrifugation, and subcultured.

nanobacteria [1] = assay: Antibiotic susceptibility of nanobacteria, Minimal Inhibition Concentration (MIC) in 96-well plates; format: cell-based
Method: Antibiotic sensitivity tests were carried out by measuring Minimal Inhibition Concentration (MIC), a common practice in clinical microbiology.
The tests were performed in 96-well plates. DMEM (commercial cell culture medium) containing 10% gamma-irradiated fetal bovine serum (FBS)(dose about 3 Mrads; this treatment inactivates nanobacteria in the serum so that the basic medium is sterile) was used as the basic culture medium. These components are commercially available, e.g., from Gibco. The antibiotic stock solutions were sterile filtered through 0.2 micrometer filters. The stock solutions were then serially diluted (into the basal culture medium) to provide a final starting concentration of 0.5 mg/ml and 1:2 dilutions therefrom, unless otherwise specified. For each antibiotic three parallel tests were performed using all the antibiotic dilutions and, additionally, positive and negative control experiments. […] 100 μl of dilutions of the nanobacteria inoculum were added to all wells except the negative controls. The plates were incubated at mammalian cell culture conditions (37° Celsius, 5% carbon dioxide, 95% humid air). The absorbance values at 650 nm were recorded by using an ELISA reader at the start, and at 4, 8, 12, 14 days. […] Calculations were based on absorbance curves where absorbance was plotted against concentration of the antibiotic.

[2] = test system: nanobacterial stone formation on human teeth; conditions: fluoride concentrations typically present in toothpastes
bone resorption = conditions: both in vitro and in vivo; cited from earlier work
nanobacteria [3] = assay: Nanobacterial growth in culture media with metal ions; format: cell-based; conditions: added to culture media at submillimolar levels
Text: (§1) Nanobacteria also absorb some heavy metals. Nanobacteria can be stained well with silver or copper compounds. […] Silver and copper parts or platings on surfaces, such as catheters or stents, can provide an antinanobacterial effect by preventing nanobacterial biofilm formation. In in vitro tests nanobacteria avidly formed biofilm on two different commercial stents made of a plastic type of material. This biofilm formation was prevented by the addition of silver or copper salts to the culture medium.

nanobacterial biofilm = assay: Nanobacterial biofilm formation on commercial stents in vitro; format: cell-based, nanobacteria; conditions: salts added to the culture medium; two commercial plastic-type stents
Text: as §1

nanobacteria [4] = assay: Treatment of human patients infected with nanobacteria; format: in vivo; conditions: person, chronic fatigue syndrome
serum nanobacteria = assay: Antibiotic sensitivity test of serum nanobacteria (cell culture antibiotics); format: cell-based; conditions: 100 μg/ml, cultured one month in medium containing 10% fetal bovine serum
Method: Nanobacteria were cultured with 10% fetal bovine serum in DMEM medium (serum nanobacteria) for one month at 37° C. in an atmosphere of 5% CO2-95% air. The cultures were harvested by centrifugation. For the autoclaving, UV, microwave, heating and drying treatments, the harvested nanobacteria were suspended in phosphate buffered saline (pH 7.4; PBS). After treatments, subculturing of the nanobacteria was made in 10% gamma irradiated fetal bovine serum in DMEM medium. The growth of serum nanobacteria was followed by light microscopy and absorbance measurement with a spectrophotometer at 650 nm.
The 1× concentrations are those recommended for cell culture. After 10 days culture in 10% serum containing DMEM with the antibiotic, growth was compared to that of nanobacteria cultures without antibiotics present.

[5] = test system: calculus formation on teeth; conditions: laboratory animals; cited from earlier work

Compound	Resistance of SF-nanobacteria to chemical disinfectants (survival), exposure time 30 min (SF-nanobacteria)	Kind of antinanobacterial effect in the in vitro test (in words) (nanobacteria [1])	also measured
OCl [0.5% hypochlorite, hypochlorite]	+++		Resistance of SF-nanobacteria to chemical disinfectants (survival), exposure time 10 min (SF-nanobacteria): +++
CCCCCCCCCCCCOS(=O)(=O)[O-].[Na+] [1% SDS, sodium dodecyl sulfate]	+++		Resistance of SF-nanobacteria to chemical disinfectants (survival), exposure time 10 min (SF-nanobacteria): +++
CCCCCCCC/C=C\CCCCCCCC(=O)OCCOCC(OCCO)C1OCC(OCCO)C1OCCO (stereo not shown) [1% Tween 80, Tween 80]	+++		Resistance of SF-nanobacteria to chemical disinfectants (survival), exposure time 10 min (SF-nanobacteria): +++
Cl [1M HCl, hydrochloric acid]	++		Effect of chemical treatment on SF-nanobacteria (in words) (SF-nanobacteria): dissolved the apatite layer of nanobacteria, but remineralization was observed after addition of culture medium
[Na+].[OH-] [1M NaOH, sodium hydroxide]	+++		Resistance of SF-nanobacteria to chemical disinfectants (survival), exposure time 10 min (SF-nanobacteria): +++
O=CCCCC=O [2% glutaraldehyde, glutaraldehyde]	+++		Resistance of SF-nanobacteria to chemical disinfectants (survival), exposure time 10 min (SF-nanobacteria): +++
OO [3% H2O2, hydrogen peroxide]	+++		Resistance of SF-nanobacteria to chemical disinfectants (survival), exposure time 10 min (SF-nanobacteria): +++
N=C(N)N [3M Guanidium HCl, guanidium-hydrochloride]	0		Effect of chemical treatment on SF-nanobacteria (in words) (SF-nanobacteria): resulted in the deattachment of the SF-nanobacteria
NC(N)=O [3M Urea, urea]	+++		Resistance of SF-nanobacteria to chemical disinfectants (survival), exposure time 10 min (SF-nanobacteria): +++
C=O [4% formaldehyde, formaldehyde]	+++		Resistance of SF-nanobacteria to chemical disinfectants (survival), exposure time 10 min (SF-nanobacteria): +++
CCO [70% ethanol, ethanol]	+++		Resistance of SF-nanobacteria to chemical disinfectants (survival), exposure time 10 min (SF-nanobacteria): +++
CC(=O)Oc1ccccc1C(=O)O [Acetylsalicylic acid]		weak	
CC1(C)S[C@@H]2[C@H](NC(=O)[C@H](N)c3ccccc3)C(=O)N2[C@H]1C(=O)O [Ampicillin]		weak bacteriostatic effect	
O=P(O)(O)C(Cl)(Cl)P(=O)(O)O [Chlodronate]		bacteriocidic effect	
O=C(O)CC(O)(CC(=O)O)C(=O)O [Citrate]		effective antinanobacterial agent	
C[C@H]1c2cccc(O)c2C(=O)C2=C(O)[C@]3(O)C(=O)C(C(N)=O)=C(O)[C@@H](N(C)C)[C@@H]3[C@@H](O)[C@@H]21 [Doxycyclin, Doxycycline]		effective on inhibiting nanobacterial growth	MIC values calculated from the 8 day results (nanobacteria [1]; 8 day results): around 1 mg per liter; Stability under the test conditions (nanobacteria [1]; MIC test culture conditions): not stable under the test conditions
O=C(O)CN(CCN(CC(=O)O)CC(=O)O)CC(=O)O [EDTA, ethylenediaminetetraacetic acid]		antinanobacterial effects	

Compound	Resistance of SF-nanobacteria to chemical disinfectants (survival), exposure time 30 min (SF-nanobacteria)	Kind of antinanobacterial effect in the in vitro test (in words) (nanobacteria [1])	also measured
O=C(O)CN(CCOCCOCCN(CC(=O)O)CC(=O)O)CC(=O)O [EGTA]		antinanobacterial effects	
CC(O)(P(=O)(O)O)P(=O)(O)O [Ethidronate]		bacteriocidic effect	
F [Fluoride]			Nanobacterial stone formation on human teeth [2]: inhibit nanobacterial stone formation
[H]/N=C(/N)N[C@H]1[C@H](O)[C@@H](O)[C@H](O[C@@H]2O[C@@H](C)[C@](O)(C=O)[C@H]2O[C@@H]2O[C@@H](CO)[C@H](O)[C@@H](O)[C@@H]2NC)[C@@H](N/C(N)=N\[H])[C@@H]1O [Streptomycin]		bacteriostatic effects at high antibiotic concentrations	
COc1cc(Cc2cnc(N)nc2N)cc(OC)c1OC [Trimethoprim]		highly effective but was only bacteriostatic	
CN[C@H](CC(C)C)C(=O)N[C@H]1C(=O)N[C@@H](CC(N)=O)C(=O)N[C@H]2C(=O)N[C@H]3C(=O)N[C@H](C(=O)N[C@H](C(=O)O)c4cc(O)cc(O)c4-c4cc3ccc4O)[C@H](O)c3ccc(c(Cl)c3)Oc3cc2cc(c3O[C@@H]2O[C@H](CO)[C@@H](O)[C@H](O)[C@H]2O[C@H]2C[C@](C)(N)[C@H](O)[C@H](C)O2)Oc2ccc(cc2Cl)[C@H]1O [Vancomycin]		effective bacteriostat against nanobacteria at relatively high concentrations	
CC1=CC(=O)c2ccccc2C1=O [Vitamin K (Menadion), Menadion]		toxic to nanobacteria at concentrations that are not harmful to mammalian cells	
NCCCC(O)(P(=O)(O)O)P(=O)(O)O [alendronate]			Potency relative to etidronate (bone resorption): approximately 700 fold
[Cu] [copper]			Nanobacterial growth (nanobacteria [3]): prevented nanobacterial growth; Biofilm formation on stents (nanobacterial biofilm): prevented
Nc1ccc(C(=O)O)c(O)c1 [para-aminosalicylic acid]			MIC value (in words) (nanobacteria [1]; compared with acetylsalicylic acid): identical with acetylsalicylic acid
CN(C)[C@@H]1C(O)=C(C(N)=O)C(=O)[C@@]2(O)C(O)=C3C(=O)c4c(O)cccc4[C@@](C)(O)[C@H]3C[C@@H]12 [tetracycline HCl]			Nanobacteria status of patient samples (nanobacteria [4]; 500 mg 4 times per day for one month, then 500 mg twice a day for 5 months, urine and serum samples): nanobacteria negative after one month therapy; Patient's condition (nanobacteria [4]; after one month therapy): improved
Gentamycin		bacteriostatic effects at high antibiotic concentrations	Morphology of nanobacteria in SEM (serum nanobacteria): changes in the morphology
Neomycin		bacteriostatic effects at high antibiotic concentrations	
Penicillin			Calculus formation [5]: do not
Triton X-100 [1% Triton X-100]	+++		Resistance of SF-nanobacteria to chemical disinfectants (survival), exposure time 10 min (SF-nanobacteria): +++
Vitamin D		very weak inhibitory effect	
silver			Nanobacterial growth (nanobacteria [3]): prevented nanobacterial growth; Biofilm formation on stents (nanobacterial biofilm): prevented
